Eight compounds from US20230287336A1, “METHOD FOR IMPROVING FLAVONOID PHENYLPROPANOID COMPOUNDS IN SAUSSUREA INVOLUCRATA CELL CULTURE” (DALIAN PRACTICAL BIOTECHNOLOGY CO, .LTD, priority 2019, published 2023) can be followed below.

Read-outs that look alike come from different tables or passages of the source.

Holding throughout (format): cell-based
Test [1] has as its system Saussurea involucrata cell culture. The test can be described thus: Content of total flavonoids in cultured cells, measured with a spectrophotometer (rutin standard curve). The method, then: (2) Method for Determining Total Flavonoids of Saussurea involucrata:
Preparation of control solution: 10 mg of rutin control substance dried to a constant weight at 120° C. was precisely weighed and placed in a 50 mL volumetric flask, an appropriate amount of methanol was added, the mixture was heated in water bath to dissolve the rutin control substance and cooled down, methanol was added to the graduation line, and the mixture was shaken well. Then a control solution was obtained (0.2 mg of anhydrous rutin was contained in 1 mL of control solution);
Preparation of a standard curve: 1 mL, 2 mL, 3 mL, 4 mL, 5 mL and 6 mL of control solutions were precisely weighed and placed in 25 mL volumetric flasks respectively, water was added to 6 mL in each volumetric flask, 1 mL of 5% sodium nitrite solution was added, and the flasks were shaken well and placed for 6 min; 1 mL of 10% aluminum nitrate was added, and the flasks were shaken well and placed for 6 min; 10 mL of sodium hydroxide test solution was added, water was added to the graduation line, and the flasks were shaken well and placed for 15 min; a corresponding reagent was used as a blank, an absorbance was determined at 500 nm, and a standard curve was plotted with the absorbance as a longitudinal coordinate and a concentration as a horizontal coordinate;
Determination: About 0.10 g of coarse powder of this product was taken, precisely weighed and placed in a Soxhlet extractor, about 90 mL of methanol was added, the mixture was heated to reflux until an extracting solution became colorless (the number of reflux times for each sample should not be less than 4 and 2 hours) and transferred into a 50 mL volumetric flask, methanol was added to the graduation line, and the flask was shaken well.

The test system is the same in test [2]. The experiment in a line: Contents of rutin, chlorogenic acid, syringin and 1,5-dicaffeoylquinic acid in cultured cells by HPLC. As for the experimental part:
(3) Content Determination of Phenylpropanoids
Cultured Saussurea involucrata cells dried to a constant weight were taken and ground to fine powder; about […] of fine powder was precisely weighed, placed in a test tube with a stopper and extracted ultrasonically with 50 mL of 20% methanol for 1 h; a weight loss was supplemented with methanol, the mixture was centrifuged at 15,000 r/min for 20 min, a supernatant was taken and filtered through a 0.45 μm filter membrane, and the contents of rutin, chlorogenic acid, syringin and 1,5-dicaffeoylquinic acid were determined simultaneously through HPLC. Shiseido capcell pak C18 MGII chromatographic column (4.6 mm×250 mm, 5 μm);
A mobile phase A was 0.2% of […] (containing 50 mmo/L KH2PO4), a mobile phase B was acetonitrile, and gradient elution was performed. Gradient conditions: 0 min (VA:VB=92:8)-20 min (VA:VB=90:10)-50 min (VA:VB=70:30)-60 min (VA:VB=50:50); flow velocity 1.0 mL/min^−1; column temperature 30° C.; detection wavelength 265 nm (syringin); sample size 20 μL.

For test [3] the test system is unchanged. The experiment in a line: Dry cell weight / yield of dried cultures after culturing. The method, then: (1) Measurement of Dry Cell Weight Cell culture solution was poured into a 120-mesh stainless steel mesh and filtered to harvest cells, the cells were washed with distilled water 3 times, moisture on the surface of the cells was fully absorbed with absorbent paper, a fresh weight was measured, […]

Where [4] appears, read: harvested suspension culture, medium, additive, time of addition and culturing time as in each example.
Setting [5] is: cells dried at 50° C. for 24 h, additive and culture conditions as in each example.

`O=C(O)C=Cc1ccccc1` [cinnamic acid]: in test [1] (setting [4]), the “content of total flavonoids in the cells” value is “more than 22 % of the cells (dry weight)”. Also, in test [2] (setting [4]), the “content of 1,5-dicaffeoylquinic acid in the cells” value is “more than 2.81%”, the “content of chlorogenic acid in the cells” value is on record as “more than 1.66%”, the “content of rutin in the cells” value is “more than 0.066%” and the “content of syringin in the cells” value is listed as “more than 1.45%”. Also, in test [3] (setting [5]), the “weight of cultures after being dried (yield of dry products)” value (from here on “weight of cultures after being dried”) came out at 15 g/L.
For `CC/C=C\CC1C(=O)CCC1CC(=O)OC` (centres unmarked) [methyl jasmonate], the “content of total flavonoids in the cells” value in test [1] (setting [4]) is recorded as “more than 24.1 % of the cells (dry weight)”. In test [2] (setting [4]), the “content of 1,5-dicaffeoylquinic acid in the cells” value is on record as “more than 4.12%”, the “content of chlorogenic acid in the cells” value was “more than 2.44%”, the “content of rutin in the cells” value is reported as “more than 0.081%” and the “content of syringin in the cells” value is recorded as “more than 1.89%”. In addition, the “weight of cultures after being dried” value in test [3] (setting [5]) came out at 20.4 g/L.
For the compound `O=C(O)C(=O)O` [oxalic acid], the “content of total flavonoids in the cells” value in test [1] (setting [4]) is “more than 19.6 % of the cells (dry weight)”. Besides, in test [2] (setting [4]), the “content of 1,5-dicaffeoylquinic acid in the cells” value was “more than 1.72%”, the “content of chlorogenic acid in the cells” value is “more than 1.27%”, the “content of rutin in the cells” value is “more than 0.071%” and the “content of syringin in the cells” value is given as “more than 0.95%”. Besides, in test [3] (setting [5]), the “weight of cultures after being dried” value worked out at 16 g/L.
Regarding `N[C@@H](Cc1ccccc1)C(=O)O` [phenylalanine], the “content of total flavonoids in the cells” value in test [1] (setting [4]) is “more than 22.7 % of the cells (dry weight)”. In addition, in test [2] (setting [4]), the “content of 1,5-dicaffeoylquinic acid in the cells” value is listed as “more than 2.48%”, the “content of chlorogenic acid in the cells” value was “more than 1.28%”, the “content of rutin in the cells” value is recorded as “more than 0.078%” and the “content of syringin in the cells” value is “more than 2.07%”. Also, the “weight of cultures after being dried” value in test [3] (setting [5]) is listed as 15 g/L.
With `O=C(O)c1ccccc1O` [salicylic acid], the “content of total flavonoids in the cells” value in test [1] (setting [4]) was “more than 21.2 % of the cells (dry weight)”. In test [2] (setting [4]), the “content of 1,5-dicaffeoylquinic acid in the cells” value is on record as “more than 3.55%”, the “content of chlorogenic acid in the cells” value is on record as “more than 1.86%”, the “content of rutin in the cells” value was “more than 0.072%” and the “content of syringin in the cells” value is “more than 1.09%”. Besides, the “weight of cultures after being dried” value in test [3] (setting [5]) was determined as 16.8 g/L.
Turning to `CC(=O)[O-].[Na+]` [sodium acetate], the “content of total flavonoids in the cells” value in test [1] was “more than 21.8 % of the cells (dry weight)”. In test [2], the “content of 1,5-dicaffeoylquinic acid in the cells” value is listed as “more than 2.35%”, the “content of chlorogenic acid in the cells” value is recorded as “more than 1.79%”, the “content of rutin in the cells” value was “more than 0.064%” and the “content of syringin in the cells” value was “more than 1.22%”. In addition, the “weight of cultures after being dried” value in test [3] is on record as 15 g/L.
With `N[C@@H](Cc1ccc(O)cc1)C(=O)O` [tyrosine], the “content of total flavonoids in the cells” value in test [1] (setting [4]) is “more than 19.4 % of the cells (dry weight)”. Besides, in test [2] (setting [4]), the “content of 1,5-dicaffeoylquinic acid in the cells” value is “more than 2.75%”, the “content of chlorogenic acid in the cells” value was “more than 0.62%”, the “content of rutin in the cells” value is on record as “more than 0.062%” and the “content of syringin in the cells” value is on record as “more than 1.49%”. Also, in test [3] (setting [5]), the “weight of cultures after being dried” value amounted to 18.2 g/L.
Take silver nitrate: in test [2] (setting [4]), the “content of 1,5-dicaffeoylquinic acid in the cells” value was “more than 2.97%”, the “content of chlorogenic acid in the cells” value is given as “more than 1.47%”, the “content of rutin in the cells” value is “more than 0.065%” and the “content of syringin in the cells” value is on record as “more than 1.38%”. Besides, the “weight of cultures after being dried” value in test [3] (setting [5]) amounted to 16 g/L.
